Values of other authors, collected in paper PMC5588751 (Nanotheranostics, 2017).

Test system: blood-brain barrier (BBB)
Details: [20]

Substance: Ac-SHAVAS-NH2 [HAV4]
- Brain delivery of Gd-DTPA (small molecular weight marker) (dose-dependent manner, MRI, ref [17], [18]): significantly enhanced
- Duration of BBB opening for Gd-DTPA (small molecule) (pretreatment studies with Gd-DTPA detected by MRI, ref [18]): less than 1 h
